Experiments:
BRM = BRM (Homo sapiens, UniProt P51531); test: Immunofluorescence assay for BRM degradation in SW1573 cells; format: cell-based; set-up: treated overnight at 4° C. with either BRM primary antibody (Cell signaling Cat #11966) or BRG primary antibody; endogenous in cells; host or cells: SW1573; conditions: 20 hours incubation; for DC50: immunofluorescence mean nuclear signal, read-out: BRM IF Degradation IC50; for BRM IF Degradation Sinf (%): normalized to a known degrader control
Experimental: (§1) Example B-2: Immunofluorescence Assay for BRM and BRG1 Degraders
(§2) SW1573 cells were seeded at 3000 cells/well in 384 well plates. The next day, compounds were added using an Echo dispenser. After 20 hours of incubation with compound, cells were fixed with 4% formaldehyde then permeabilized with 0.2% Triton X-100 and blocked with 10% FCS. Fixed and permeabilized cells were treated overnight at 4° C. with either BRM primary antibody (Cell signaling Cat #11966) or BRG primary antibody (Abcam, ab 110641). Finally, cells were treated with fluorescently labeled secondary antibodies for 1 hr (Donkey anti-Rabbit IgG AF488, Life Technologies, A21206) and Hoechst nuclear stain (#H3569) was added for 30 minutes. Cells were washed with PBS in between each step and before imaging on an Opera Phenix microscope (Perkin Elmer). Harmony software (Perking Elmer) was used to quantify the mean nuclear signaling intensity of BRM or BRG signaling per cell in each well. Dose responses were determined from the concentration dependent response of mean nuclear signal intensity with data normalized to a known degrader control. Dose response curves were fit to a floating maximum to allow for calculation of the Dmax.
(§3) Note that, in Table 5, the “Compound Number” corresponds to that used in Table 1. In Table 5, for BRM and BRG1 IF degradation IC50 (μM): A indicates <0.010 μM, B indicates 0.010-0.10 μM, and C indicates >0.10 μM; and for BRM and BRG1 IF degradation Sinf % D indicates 0-−30%, E indicates −30%-−70%, F indicates −71%-−120% and ND indicates the value was not determined.

BRG1 = target: T1, BRG1 (Homo sapiens, UniProt P51532); test: Immunofluorescence assay for BRG1 degradation in SW1573 cells; format: cell-based; conditions: 20 hours incubation; for DC50: immunofluorescence mean nuclear signal, read-out: BRG1 IF Degradation IC50; for Dmax: SW1573, 20 h, read-out: BRG1 IF Degradation Sinf (%)
T1 construct: either BRM primary antibody (Cell signaling Cat #11966) or BRG primary antibody (Abcam, ab 110641); endogenous in cells; host or cells: SW1573
T1 sequence (P51532 whole entry): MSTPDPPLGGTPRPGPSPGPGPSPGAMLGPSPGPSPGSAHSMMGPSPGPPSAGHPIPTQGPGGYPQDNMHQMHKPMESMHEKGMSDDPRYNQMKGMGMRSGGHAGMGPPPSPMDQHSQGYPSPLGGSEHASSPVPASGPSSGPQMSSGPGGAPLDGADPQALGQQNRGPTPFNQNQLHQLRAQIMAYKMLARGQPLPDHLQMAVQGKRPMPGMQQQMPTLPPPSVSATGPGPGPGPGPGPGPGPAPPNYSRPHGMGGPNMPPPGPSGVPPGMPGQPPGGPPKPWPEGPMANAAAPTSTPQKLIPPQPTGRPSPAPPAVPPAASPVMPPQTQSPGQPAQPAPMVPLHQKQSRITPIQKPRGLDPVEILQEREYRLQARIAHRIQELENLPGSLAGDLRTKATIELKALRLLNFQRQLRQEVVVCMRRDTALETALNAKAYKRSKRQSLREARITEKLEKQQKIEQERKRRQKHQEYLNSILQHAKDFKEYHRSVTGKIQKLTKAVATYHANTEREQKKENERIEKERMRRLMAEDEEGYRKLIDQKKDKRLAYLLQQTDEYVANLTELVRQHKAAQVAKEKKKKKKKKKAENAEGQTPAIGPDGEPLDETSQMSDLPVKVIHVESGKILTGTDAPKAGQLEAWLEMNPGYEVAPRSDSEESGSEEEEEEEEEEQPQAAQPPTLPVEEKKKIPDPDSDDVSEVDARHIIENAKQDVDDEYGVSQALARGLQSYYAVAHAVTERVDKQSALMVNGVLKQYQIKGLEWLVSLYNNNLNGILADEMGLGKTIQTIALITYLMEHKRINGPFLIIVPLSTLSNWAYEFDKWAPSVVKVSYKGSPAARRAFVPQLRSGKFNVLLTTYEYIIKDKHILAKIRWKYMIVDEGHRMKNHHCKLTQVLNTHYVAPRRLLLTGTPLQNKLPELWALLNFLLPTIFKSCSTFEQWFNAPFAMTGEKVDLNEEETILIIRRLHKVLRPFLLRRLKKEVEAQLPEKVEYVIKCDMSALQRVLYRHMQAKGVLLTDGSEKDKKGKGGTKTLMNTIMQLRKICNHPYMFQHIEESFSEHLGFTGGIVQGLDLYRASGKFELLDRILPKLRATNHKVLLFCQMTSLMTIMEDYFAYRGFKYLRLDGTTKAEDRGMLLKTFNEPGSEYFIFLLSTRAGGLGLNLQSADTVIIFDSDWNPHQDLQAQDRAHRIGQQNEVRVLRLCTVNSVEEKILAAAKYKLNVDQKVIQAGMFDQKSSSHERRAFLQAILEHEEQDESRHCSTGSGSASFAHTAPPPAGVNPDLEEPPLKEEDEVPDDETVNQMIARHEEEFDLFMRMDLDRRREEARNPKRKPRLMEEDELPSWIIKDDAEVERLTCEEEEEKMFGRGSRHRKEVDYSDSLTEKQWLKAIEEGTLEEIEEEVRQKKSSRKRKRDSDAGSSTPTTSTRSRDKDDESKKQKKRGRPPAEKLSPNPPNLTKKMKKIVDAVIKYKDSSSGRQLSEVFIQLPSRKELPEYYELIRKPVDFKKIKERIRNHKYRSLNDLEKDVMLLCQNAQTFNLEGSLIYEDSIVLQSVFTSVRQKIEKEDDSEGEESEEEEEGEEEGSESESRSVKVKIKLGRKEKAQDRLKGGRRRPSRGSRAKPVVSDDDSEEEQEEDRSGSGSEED
Experimental: as §1, §2, §3

[1] = normalized to a known degrader control

Sequence of BRM (P51531 whole entry): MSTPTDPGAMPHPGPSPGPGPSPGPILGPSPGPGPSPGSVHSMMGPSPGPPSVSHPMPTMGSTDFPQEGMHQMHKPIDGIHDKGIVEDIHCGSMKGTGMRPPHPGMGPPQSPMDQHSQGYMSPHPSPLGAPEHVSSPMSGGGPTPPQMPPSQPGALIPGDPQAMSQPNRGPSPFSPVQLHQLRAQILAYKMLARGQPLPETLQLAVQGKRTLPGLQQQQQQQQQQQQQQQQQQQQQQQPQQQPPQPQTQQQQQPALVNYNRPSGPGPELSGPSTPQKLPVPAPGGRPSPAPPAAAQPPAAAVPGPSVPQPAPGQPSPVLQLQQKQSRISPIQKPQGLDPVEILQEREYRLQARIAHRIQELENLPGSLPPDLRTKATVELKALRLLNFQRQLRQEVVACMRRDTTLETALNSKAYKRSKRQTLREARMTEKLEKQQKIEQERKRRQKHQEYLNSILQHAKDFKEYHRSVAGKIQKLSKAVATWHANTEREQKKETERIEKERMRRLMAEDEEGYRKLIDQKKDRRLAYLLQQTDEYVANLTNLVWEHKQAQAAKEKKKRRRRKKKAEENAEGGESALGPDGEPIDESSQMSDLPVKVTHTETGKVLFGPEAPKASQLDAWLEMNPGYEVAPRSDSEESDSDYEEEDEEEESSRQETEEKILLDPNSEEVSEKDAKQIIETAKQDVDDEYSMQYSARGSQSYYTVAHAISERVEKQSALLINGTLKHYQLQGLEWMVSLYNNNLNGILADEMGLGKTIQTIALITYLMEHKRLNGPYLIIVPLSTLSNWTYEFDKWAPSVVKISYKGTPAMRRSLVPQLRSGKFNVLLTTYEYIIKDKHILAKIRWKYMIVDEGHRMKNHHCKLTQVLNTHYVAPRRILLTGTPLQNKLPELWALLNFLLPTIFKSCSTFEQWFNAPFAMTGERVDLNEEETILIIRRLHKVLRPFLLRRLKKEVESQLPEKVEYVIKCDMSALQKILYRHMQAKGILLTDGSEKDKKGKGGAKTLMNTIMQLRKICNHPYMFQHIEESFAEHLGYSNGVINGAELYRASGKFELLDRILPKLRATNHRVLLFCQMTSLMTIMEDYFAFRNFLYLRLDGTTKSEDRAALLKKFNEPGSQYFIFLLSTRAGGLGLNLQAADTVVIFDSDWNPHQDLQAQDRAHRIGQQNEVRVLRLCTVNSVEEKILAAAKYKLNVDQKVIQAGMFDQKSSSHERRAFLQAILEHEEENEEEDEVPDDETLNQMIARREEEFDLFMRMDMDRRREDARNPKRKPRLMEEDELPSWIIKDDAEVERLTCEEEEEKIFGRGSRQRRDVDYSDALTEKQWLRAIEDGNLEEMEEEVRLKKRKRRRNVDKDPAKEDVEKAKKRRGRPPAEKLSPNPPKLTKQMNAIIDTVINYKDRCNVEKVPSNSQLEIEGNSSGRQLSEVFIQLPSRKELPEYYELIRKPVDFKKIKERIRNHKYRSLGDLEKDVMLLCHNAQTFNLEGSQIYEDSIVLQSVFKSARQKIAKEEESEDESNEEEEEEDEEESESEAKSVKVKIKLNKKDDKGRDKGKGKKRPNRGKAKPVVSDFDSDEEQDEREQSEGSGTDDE

SMILES	DC50 (BRM) [nM]	BRM IF Degradation Sinf (%) (BRM)	DC50 (BRG1) [nM]	Dmax (BRG1; [1]) [%]	BRG1 IF Degradation Sinf (%) (BRG1; [1])
Nc1nnc(-c2ccccc2O)cc1N1CC2CCC(C1)N2c1ccnc(C#CCN2CC3(CCCCO3)C2)c1 [Compound 66, 2-[6-amino-5-[8-[2-[3-(5-oxa-2-azaspiro[3.5]nonan-2-yl)prop-1-ynyl]-4-pyridyl]-3,8-diazabicyclo[3.2.1]octan-3-yl]pyridazin-3-yl]phenol]	< 10	F (F indicates −71%-−120%)	10 to 100	30 to 70	
Nc1nnc(-c2ccccc2O)cc1N1CC2CCC(C1)N2c1ccnc(C#CCN2CCN3CCCC3C2)c1 (stereo not drawn) [Compound 67, 2-[5-[8-[2-[3-(3,4,6,7,8,8a-hexahydro-1H-pyrrolo[1,2-a]pyrazin-2-yl)prop-1-ynyl]-4-pyridyl]-3,8-diazabicyclo[3.2.1]octan-3-yl]-6-amino-pyridazin-3-yl]phenol]	10 to 100	E (E indicates −30%-−70%)	< 10	0 to 30	
Nc1nnc(-c2ccccc2O)cc1N1CC2CCC(C1)N2c1ccnc(C#CCN2CC3CC3C2)c1 (stereo not drawn) [Compound 68, 2-[6-amino-5-[8-[2-[3-(3-azabicyclo[3.1.0]hexan-3-yl)prop-1-ynyl]-4-pyridyl]-3,8-diazabicyclo[3.2.1]octan-3-yl]pyridazin-3-yl]phenol;]	< 10	F (F indicates −71%-−120%)	< 10	30 to 70	
Nc1nnc(-c2ccccc2O)cc1N1CC2CCC(C1)N2c1ccnc(C#CCN2CCC23CCOC3)c1 (stereo not drawn) [Compound 69, 2-[6-amino-5-[8-[2-[3-(7-oxa-1-azaspiro[3.4]octan-1-yl)prop-1-ynyl]-4-pyridyl]-3,8-diazabicyclo[3.2.1]octan-3-yl]pyridazin-3-yl]phenol]	< 10	F (F indicates −71%-−120%)	< 10		E (E indicates −30%-−70%)
Nc1nnc(-c2ccccc2O)cc1N1CC2CCC(C1)N2c1ccnc(C#CCN2CCCOCC2)c1 [Compound 70, 2-[6-amino-5-[8-[2-[3-(l,4-oxazepan-4-yl)prop-1-ynyl]-4-pyridyl]-3,8-diazabicyclo[3.2.1]octan-3-yl]pyridazin-3-yl]phenol]	< 10	E (E indicates −30%-−70%)	< 10	30 to 70	
Nc1nnc(-c2ccccc2O)cc1N1CC2CCC(C1)N2c1ccnc(C#CCN2CCC(O)CC2)c1 [Compound 71, 1-[3-[4-[3-[3-amino-6-(2-hydroxyphenyl)pyridazin-4-yl]-3,8-diazabicyclo[3.2.1]octan-8-yl]-2-pyridyl]prop-2-ynyl]piperidin-4-ol]	10 to 100	E (E indicates −30%-−70%)	< 10	30 to 70	
Nc1nnc(-c2ccccc2O)cc1N1CC2CCC(C1)N2c1ccnc(C#CCN2CCn3cncc3C2)c1 [Compound 72, 2-[6-amino-5-[8-[2-[3-(6,8-dihydro-5H-imidazo[1,5-a]pyrazin-7-yl)prop-1-ynyl]-4-pyridyl]-3,8-diazabicyclo[3.2.1]octan-3-yl]pyridazin-3-yl]phenol]	10 to 100	E (E indicates −30%-−70%)	> 100		
Nc1nnc(-c2ccccc2O)cc1N1CC2CCC(C1)N2c1ccnc(C#CCN2CCOCC23CC3)c1 [Compound 73, 2-[6-amino-5-[8-[2-[3-(7-oxa-4-azaspiro[2.5]octan-4-yl)prop-1-ynyl]-4-pyridyl]-3,8-diazabicyclo[3.2.1]octan-3-yl]pyridazin-3-yl]phenol]	> 100	E (E indicates −30%-−70%)	> 100		
Nc1nnc(-c2ccccc2O)cc1N1CC2CCC(C1)N2c1ccnc(C#CCN2CCOC3CC32)c1 (stereo not drawn) [Compound 74, 2-[6-amino-5-[8-[2-[3-(2-oxa-5-azabicyclo[4.1.0]heptan-5-yl)prop-1-ynyl]-4-pyridyl]-3,8-diazabicyclo[3.2.1]octan-3-yl]pyridazin-3-yl]phenol]	10 to 100	E (E indicates −30%-−70%)	> 100		
C[C@H]1CCN(CC#Cc2cc(N3C4CCC3CN(c3cc(-c5ccccc5O)nnc3N)C4)ccn2)C1 [Compound 75, 2-(6-amino-5-(8-(2-(3-((S)-3-methylpyrrolidin-1-yl)prop-1-yn-1-yl)pyridin-4-yl)-3,8-diazabicyclo[3.2.1]octan-3-yl)pyridazin-3-yl)phenol]	< 10	E (E indicates −30%-−70%)	< 10	30 to 70	
Nc1nnc(-c2ccccc2O)cc1N1CC2CCC(C1)N2c1ccnc(C#CCN2CC3COCC3C2)c1 (stereo not drawn) [Compound 76, 2-[5-[8-[2-[3-(1,3,3a,4,6,6a-hexahydrofuro[3,4-c]pyrrol-5-yl)prop-1-ynyl]-4-pyridyl]-3,8-diazabicyclo[3.2.1]octan-3-yl]-6-amino-pyridazin-3-yl]phenol]	< 10	E (E indicates −30%-−70%)	< 10	0 to 30	
Nc1nnc(-c2ccccc2O)cc1N1CC2CCC(C1)N2c1ccnc(C#CCN2CCOC3(CCC3)C2)c1 [Compound 77]	10 to 100	E (E indicates −30%-−70%)	> 100		
Nc1nnc(-c2ccccc2O)cc1N1CC2CCC(C1)N2c1ccnc(C#CCN2CCC3CC[C@@H](O)C32)c1 (stereo partly drawn) [Compound 78, (6R)-1-[3-[4-[3-[3-amino-6-(2-hydroxyphenyl)pyridazin-4-yl]-3,8-diazabicyclo[3.2.1]octan-8-yl]-2-pyridyl]prop-2-ynyl]-3,3a,4,5,6,6a-hexahydro-2H-cyclopenta[b]pyrrol-6-ol]	< 10	E (E indicates −30%-−70%)	> 100		
CC1CN(CC#Cc2cc(N3C4CCC3CN(c3cc(-c5ccccc5O)nnc3N)C4)ccn2)CC(C)O1 (stereo not drawn) [Compound 79, 2-[6-amino-5-[8-[2-[3-(2,6-dimethylmorpholin-4-yl)prop-1-ynyl]-4-pyridyl]-3,8-diazabicyclo[3.2.1]octan-3-yl]pyridazin-3-yl]phenol]	10 to 100	E (E indicates −30%-−70%)	> 100		
Nc1nnc(-c2ccccc2O)cc1N1CC2CCC(C1)N2c1ccnc(C#CCN2CCC(N3CCOCC3)C2)c1 (stereo not drawn) [Compound 80, 2-[6-amino-5-[8-[2-[3-(3-morpholinopyrrolidin-1-yl)prop-1-ynyl]-4-pyridyl]-3,8-diazabicyclo[3.2.1]octan-3-yl]pyridazin-3-yl]phenol]	10 to 100	E (E indicates −30%-−70%)	< 10	0 to 30	
Nc1nnc(-c2ccccc2O)cc1N1CC2CCC(C1)N2c1ccnc(C#CCN2CC3CCOC3C2)c1 (stereo not drawn) [Compound 81, 2-[5-[8-[2-[3-(2,3,3a,4,6,6a-hexahydrofuro[2,3-c]pyrrol-5-yl)prop-1-ynyl]-4-pyridyl]-3,8-diazabicyclo[3.2.1]octan-3-yl]-6-amino-pyridazin-3-yl]phenol]	< 10	E (E indicates −30%-−70%)	< 10	30 to 70	
COC1C2CCC1N(CC#Cc1cc(N3C4CCC3CN(c3cc(-c5ccccc5O)nnc3N)C4)ccn1)C2 (stereo not drawn) [Compound 82, 2-[6-amino-5-[8-[2-[3-(7-methoxy-2-azabicyclo[2.2.1]heptan-2-yl)prop-1-ynyl]-4-pyridyl]-3,8-diazabicyclo[3.2.1]octan-3-yl]pyridazin-3-yl]phenol]	< 10	E (E indicates −30%-−70%)	< 10	30 to 70	
Nc1nnc(-c2ccccc2O)cc1N1CC2CCC(C1)N2c1ccnc(C#CCN2CC3COCC(C2)C3O)c1 (stereo not drawn) [Compound 83, 7-[3-[4-[3-[3-amino-6-(2-hydroxyphenyl)pyridazin-4-yl]-3,8-diazabicyclo[3.2.1]octan-8-yl]-2-pyridyl]prop-2-ynyl]-3-oxa-7-azabicyclo[3.3.1]nonan-9-ol]	> 100	E (E indicates −30%-−70%)	10 to 100	30 to 70	
Nc1nnc(-c2ccccc2O)cc1N1CC2CCC(C1)N2c1ccnc(C#CCN2CCC3(C2)CC3(F)F)c1 (stereo not drawn) [Compound 84, 2-[6-amino-5-[8-[2-[3-(2,2-difluoro-5-azaspiro[2.4]heptan-5-yl)prop-1-ynyl]-4-pyridyl]-3,8-diazabicyclo[3.2.1]octan-3-yl]pyridazin-3-yl]phenol]	< 10	E (E indicates −30%-−70%)	> 100		
